Laboratory results from patent publication US20020026053A1, “Novel 3-(substituted) -2- indolinones compounds and use thereof as inhibitors of protein kinase activity” (priority 1997, published 2002).
Where “and” joins values, the source holds several entries; their conditions need not be identical. Equal values may be shown once.

Key:
FLK-1 receptor = assay: FLK-1 Assay (cellular/catalytic ELISA, VEGF-stimulated phosphotyrosine); format: cell-based; parameters: concentration or dose not given beside the values; conditions: protocol P.110
Method: (§1) The cellular/catalytic assays described herein are performed in an ELISA format. The general procedure is as follows: a compound is introduced to cells expressing the test kinase, either naturally or recombinantly, for a selected period of time after which, if the test kinase is a receptor, a ligand known to activate the receptor is added. The cells are lysed and the lysate is transferred to the wells of an ELISA plate previously coated with a specific antibody recognizing the substrate of the enzymatic phosphorylation reaction. Non-substrate components of the cell lysate are washed away and the amount of phosphorylation on the substrate is detected with an antibody specifically recognizing phosphotyrosine compared with control cells that were not contacted with a test compound.
An ELISA assay is conducted to measure the kinase activity of the FLK-1 receptor and more specifically, the inhibition or activation of TK activity on the FLK-1 receptor. Specifically, the following assay can be conducted to measure kinase activity of the FLK-1 receptor in cells genetically engineered to express Flk-1.
a. Corning 96-well ELISA plates (Corning Catalog No. 25805-96);
b. Cappel goat anti-rabbit IgG (catalog no. 55641);
c. PBS (Gibco Catalog No. 450-1300EB);
d. TBSW Buffer (50 mM Tris (pH 7.2), 150 mM NaCl and 0.1% Tween-20);
e. Ethanolamine stock (10% ethanolamine (pH 7.0), stored at 4° C.);
f. HNTG buffer (20 mM HEPES buffer (pH 7.5), 150 mM NaCl, 0.2% Triton X-100, and 10% glycerol);
g. EDTA (0.5 M (pH 7.0) as a 100× stock);
h. Sodium orthovanadate (0.5 M as a 100× stock);
i. Sodium pyrophosphate (0.2 M as a 100× stock);
j. NUNC 96 well V bottom polypropylene plates (Applied Scientific Catalog No. AS-72092);
k. NIH3T3 C7#3 Cells (FLK-1 expressing cells);
l. DMEM with 1× high glucose L-Glutamine (catalog No. 11965-050);
n. L-glutamine, Gibco (catalog no. 25030-016);
o. VEGF, PeproTech, Inc. (catalog no. 100-20)(kept as 1 μg/100 μl stock in Milli-Q dH2O and stored at −20° C.;
p. Affinity purified anti-FLK-1 antiserum;
q. UB40 monoclonal antibody specific for phosphotyrosine (see, Fendley, et al., 1990, Cancer Research 50:1550-1558);
r. EIA grade Goat anti-mouse IgG-POD (BioRad catalog no. 172-1011);
s. 2,2-azino-bis(3-ethylbenz-thiazoline-6-sulfonic acid (ABTS) solution (100 mM citric acid (anhydrous), 250 mM Na2HPO4 (pH 4.0), 0.5 mg/ml ABTS (Sigma catalog no. A-1888)), solution should be stored in dark at 4° C. until ready for use;
t. H2O2 (30% solution) (Fisher catalog no. H325);
u. ABTS/ H2O2 (15 ml ABTS solution, 2 μl H2O2) prepared 5 minutes before use and left at room temperature;
v. 0.2 M HCl stock in H2O;
w. dimethylsulfoxide (100%) (Sigma Catalog No. D-8418); and
y. Trypsin-EDTA (Gibco BRL Catalog No. 25200-049).
1. Coat Corning 96-well ELISA plates with 1.0 μg per well Cappel Anti-rabbit IgG antibody in 0.1M Na2CO3 pH 9.6. Bring final volume to 150 μl per well. Coat plates overnight at 4° C. Plates can be kept up to two weeks when stored at 4° C.
2. Grow cells in Growth media (DMEM, supplemented with 2.0 mM L-Glutamine, 10% FBS) in suitable culture dishes until confluent at 37° C., 5% CO2.
3. Harvest cells by trypsinization and seed in Corning 25850 polystyrene 96-well round bottom cell plates, 25,000 cells/well in 200 μl of growth media.
4. Grow cells at least one day at 37° C., 5% CO2.
5. Wash cells with D-PBS 1×.
6. Add 200 μl/well of starvation media (DMEM, 2.0 mM 1-Glutamine, 0.1% FBS). Incubate overnight at 37° C., 5% CO2.
7. Dilute Compounds 1:20 in polypropylene 96 well plates using starvation media. Dilute dimethylsulfoxide 1:20 for use in control wells.
8. Remove starvation media from 96 well cell culture plates and add 162 μl of fresh starvation media to each well.
9. Add 18 μl of 1:20 diluted compound dilution (from step 7) to each well plus the 1:20 dimethylsulfoxide dilution to the control wells (+/− VEGF), for a final dilution of 1:200 after cell stimulation. Final dimethylsulfoxide is 0.5%. Incubate the plate at 37° C., 5% CO2 for two hours.
10. […]

PDGF-R = PDGF-R Assay (cellular ELISA, U1242 cells); format: cell-based; parameters: concentration or dose not given beside the values; conditions: protocol P.119
Method: as §1
All cell culture media, glutamine, and fetal bovine serum can be purchased from Gibco Life Technologies (Grand Island, N.Y.) unless otherwise specified. All cells are grown in a humid atmosphere of 90-95% air and 5-10% CO2 at 37° C. All cell lines are routinely subcultured twice a week and are negative for mycoplasma as determined by the Mycotect method (Gibco).
For ELISA assays, cells (U1242, obtained from Joseph Schlessinger, NYU) are grown to 80-90% confluency in growth medium (MEM with 10% FBS, NEAA, 1 mM NaPyr and 2 mM GLN) and seeded in 96-well tissue culture plates in 0.5% serum at 25,000 to 30,000 cells per well. After overnight incubation in 0.5% serum-containing medium, cells are changed to serum-free medium and treated with test compound for 2 hr in a 5% CO2, 37° C. incubator. Cells are then stimulated with ligand for 5-10 minute followed by lysis with HNTG (20 mM Hepes, 150 mM NaCl, 10% glycerol, 5 mM EDTA, 5 mM Na3VO4, 0.2% Triton X-100, and 2 mM NaPyr). Cell lysates (0.5 mg/well in PBS) are transferred to ELISA plates previously coated with receptor-specific antibody and which had been blocked with 5% milk in TBST (50 mM Tris-HCl pH 7.2, 150 mM NaCl and 0.1% Triton X-100) at room temperature for 30 min. Lysates are incubated with shaking for 1 hour at room temperature. The plates are washed with TBST four times and then incubated with polyclonal anti-phosphotyrosine antibody at room temperature for 30 minutes. Excess anti-phosphotyrosine antibody is removed by rinsing the plate with TBST four times. Goat anti-rabbit IgG antibody is added to the ELISA plate for 30 min at room temperature followed by rinsing with TBST four more times. ABTS (100 mM citric acid, 250 mM Na2HPO4 and 0.5 mg/mL 2,2′-azino-bis (3-ethylbenzthiazoline-6-sulfonic acid)) plus H2O2 ([…] 30% H2O2 to 10 ml ABTS) is added to the ELISA plates to start color development. Absorbance at 410 nm with a reference wavelength of 630 nm is recorded about 15 to 30 min after ABTS addition.

**Q.** Which “Flk Kinase % Inhibition (P.110)” value (FLK-1 receptor) does the source give for `Cc1c(Br)cc(Br)c2c1C(=CC1COc3ccccc3O1)C(=O)N2` (racemic) [10739/H05] here?
**A.** The value was 5.3% and 10.0%.

**Q.** And the “PDGF Kinase % Inhibition (P.119)” value (PDGF-R)?
**A.** The value was −5.0% and −6.4%.
